Columns and labels:
Assay type in all cases: functional
T47D [1] = assay: Growth inhibition of human T47D cells assessed as cell growth at 10 uM by sulforhodamine B assay; conditions: read-out: Activity
Malme-3M = assay: Growth inhibition of human MALME-3M cells assessed as cell growth at 10^-8 M by sulforhodamine B assay; conditions: read-out: Activity
NCI-H23 = assay: Growth inhibition of human NCI-H23 cells assessed as cell growth at 10^-4 M by sulforhodamine B assay; conditions: read-out: Activity
SR [2] = assay: Growth inhibition of human SR cells assessed as cell growth at 10 uM by sulforhodamine B assay; conditions: read-out: Activity
T47D [3] = assay: Growth inhibition of human T47D cells assessed as cell growth at 10^-4 M by sulforhodamine B assay; conditions: read-out: Activity
T47D [4] = assay: Growth inhibition of human T47D cells assessed as growth inhibition at 10 uM by sulforhodamine B assay; conditions: read-out: GI
RXF 393 = assay: Growth inhibition of human RXF393 cells assessed as cell growth at 10 uM by sulforhodamine B assay; conditions: read-out: Activity
NCI-H322M = assay: Growth inhibition of human NCI-H322M cells assessed as cell growth at 10^-4 M by sulforhodamine B assay; conditions: read-out: Activity
SNB-75 = assay: Growth inhibition of human SNB75 cells assessed as cell growth at 10^-6 M by sulforhodamine B assay; conditions: read-out: Activity
OVCAR-5 = assay: Growth inhibition of human OVCAR5 cells assessed as growth inhibition at 10 uM by sulforhodamine B assay; conditions: read-out: GI
HCT-15 [5] = assay: Growth inhibition of human HCT15 cells assessed as cell growth at 10^-8 M by sulforhodamine B assay; conditions: read-out: Activity
CCRF-CEM = assay: Growth inhibition of human CCRF-CEM cells assessed as cell growth at 10^-6 M by sulforhodamine B assay; conditions: read-out: Activity
OVCAR-8 = assay: Growth inhibition of human OVCAR8 cells assessed as cell growth at 10 uM by sulforhodamine B assay; conditions: read-out: Activity
MOLT-4 [6] = assay: Growth inhibition of human MOLT4 cells assessed as growth inhibition at 10 uM by sulforhodamine B assay; conditions: read-out: GI
COLO 205 = assay: Growth inhibition of human COLO205 cells assessed as cell growth at 10^-4 M by sulforhodamine B assay; conditions: read-out: Activity
[7] = Growth inhibition of human Hs 578T cells assessed as cell growth at 10^-7 M by sulforhodamine B assay; conditions: read-out: Activity
K562 = assay: Growth inhibition of human K562 cells assessed as cell growth at 10^-8 M by sulforhodamine B assay; conditions: read-out: Activity
PC-3 [8] = assay: Growth inhibition of human PC3 cells assessed as cell growth at 10^-6 M by sulforhodamine B assay; conditions: read-out: Activity
OVCAR-3 = assay: Growth inhibition of human OVCAR3 cells by sulforhodamine B assay
HOP-92 [9] = assay: Growth inhibition of human HOP92 cells assessed as growth inhibition at 10 uM by sulforhodamine B assay; conditions: read-out: GI
PC-3 [10] = assay: Growth inhibition of human PC3 cells assessed as growth inhibition at 10 uM by sulforhodamine B assay; conditions: read-out: GI
HOP-62 = assay: Growth inhibition of human HOP62 cells assessed as growth inhibition at 10 uM by sulforhodamine B assay; conditions: read-out: GI
HOP-92 [11] = assay: Growth inhibition of human HOP92 cells by sulforhodamine B assay
LOX IMVI = assay: Growth inhibition of human LOXIMVI cells assessed as growth inhibition at 10 uM by sulforhodamine B assay; conditions: read-out: GI
MDA-MB-231 = assay: Growth inhibition of human MDA-MB-231 cells assessed as growth inhibition at 10 uM by sulforhodamine B assay; conditions: read-out: GI
SW-620 = assay: Growth inhibition of human SW620 cells assessed as growth inhibition at 10 uM by sulforhodamine B assay; conditions: read-out: GI
786-0 = assay: Growth inhibition of human 786-0 cells assessed as cell growth at 10 uM by sulforhodamine B assay; conditions: read-out: Activity
SNB-19 = assay: Growth inhibition of human SNB19 cells assessed as cell growth at 10^-4 M by sulforhodamine B assay; conditions: read-out: Activity
HCT-15 [12] = assay: Growth inhibition of human HCT15 cells assessed as cell growth at 10 uM by sulforhodamine B assay; conditions: read-out: Activity
TK-10 = assay: Growth inhibition of human TK10 cells assessed as cell growth at 10 uM by sulforhodamine B assay; conditions: read-out: Activity
UACC-257 [13] = assay: Growth inhibition of human UACC257 cells by sulforhodamine B assay
HT-29 = assay: Growth inhibition of human HT-29 cells assessed as growth inhibition at 10 uM by sulforhodamine B assay; conditions: read-out: GI
MCF7 = assay: Growth inhibition of human MCF7 cells assessed as cell growth at 10^-8 M by sulforhodamine B assay; conditions: read-out: Activity
SR [14] = assay: Growth inhibition of human SR cells assessed as growth inhibition at 10 uM by sulforhodamine B assay; conditions: read-out: GI
MOLT-4 [15] = assay: Growth inhibition of human MOLT4 cells assessed as cell growth at 10 uM by sulforhodamine B assay; conditions: read-out: Activity
IGROV-1 [16] = assay: Growth inhibition of human IGROV1 cells assessed as cell growth at 10^-7 M by sulforhodamine B assay; conditions: read-out: Activity
UACC-62 = assay: Growth inhibition of human UACC62 cells assessed as cell growth at 10 uM by sulforhodamine B assay; conditions: read-out: Activity
SN12C = assay: Growth inhibition of human SN12C cells assessed as cell growth at 10^-7 M by sulforhodamine B assay; conditions: read-out: Activity
HCT-15 [17] = assay: Growth inhibition of human HCT15 cells assessed as cell growth at 10^-7 M by sulforhodamine B assay; conditions: read-out: Activity
NCI-H522 = assay: Growth inhibition of human NCI-H522 cells assessed as cell growth at 10 uM by sulforhodamine B assay; conditions: read-out: Activity
IGROV-1 [18] = assay: Growth inhibition of human IGROV1 cells assessed as cell growth at 10 uM by sulforhodamine B assay; conditions: read-out: Activity
UACC-257 [19] = assay: Growth inhibition of human UACC257 cells assessed as cell growth at 10^-7 M by sulforhodamine B assay; conditions: read-out: Activity
SK-MEL-28 = assay: Growth inhibition of human SK-MEL-28 cells assessed as growth inhibition at 10 uM by sulforhodamine B assay; conditions: read-out: GI
[20] = Growth inhibition of human HCC2998 cells assessed as cell growth at 10^-4 M by sulforhodamine B assay; conditions: HCC 2998, read-out: Activity
KM12 [21] = assay: Growth inhibition of human KM12 cells assessed as cell growth at 10^-7 M by sulforhodamine B assay; conditions: read-out: Activity
KM12 [22] = assay: Growth inhibition of human KM12 cells assessed as cell growth at 10^-8 M by sulforhodamine B assay; conditions: read-out: Activity
[23] = read-out: LC50 (the source's name)
[24] = read-out: pLC50 (the source's name) (converted)

## CC1(C)C[C@@H](O)[C@]2(C(=O)O)CC[C@]3(C)C(=CC[C@@H]4[C@@]5(C)C/C(=C\C=C\c6ccccc6)C(=O)C(C)(C)[C@@H]5CC[C@]43C)[C@@H]2C1
T47D [1]
  growth at 10 µM: 37.6%
Malme-3M
  growth at 0.01 µM: 92%
NCI-H23
  growth at 100 µM: -83%
SR [2]
  growth at 10 µM: 62.6%
T47D [3]
  growth at 100 µM: -45%
T47D [4]
  inhibition of growth at 10 µM: 62.4%
RXF 393
  growth at 10 µM: 84.1%
NCI-H322M
  growth at 100 µM: -78%
SNB-75
  growth at 1 µM: 79%
OVCAR-5
  inhibition of growth at 10 µM: < 10%
HCT-15 [5]
  growth at 0.01 µM: 97%
CCRF-CEM
  growth at 1 µM: 96%
OVCAR-8
  growth at 10 µM: 43%
MOLT-4 [6]
  inhibition of growth at 10 µM: 55.6%
COLO 205
  growth at 100 µM: -61%
[7]
  growth at 0.1 µM: 92%
K562
  growth at 0.01 µM: 114%
PC-3 [8]
  growth at 1 µM: 80%
OVCAR-3; read-out: GI50
  GI50: 2.04 µM
OVCAR-3; [23]
  CC50: 14.2 µM
OVCAR-3; read-out: TGI
  TGI: 4.81 µM
OVCAR-3; read-out: pGI50 (converted)
  GI50: 2.04 µM
OVCAR-3; [24]
  CC50: 14.1 µM
OVCAR-3; read-out: pTGI (converted)
  TGI: 4.79 µM
HOP-92 [9]
  inhibition of growth at 10 µM: 50.8%
PC-3 [10]
  inhibition of growth at 10 µM: 58.5%
HOP-62
  inhibition of growth at 10 µM: 37.2%
HOP-92 [11]; read-out: GI50
  GI50: 1.92 µM
HOP-92 [11]; [23]
  CC50: 36.6 µM
HOP-92 [11]; read-out: TGI
  TGI: 6.67 µM
HOP-92 [11]; read-out: pGI50 (converted)
  GI50: 1.91 µM
HOP-92 [11]; [24]
  CC50: 36.3 µM
HOP-92 [11]; read-out: pTGI (converted)
  TGI: 6.61 µM
LOX IMVI
  inhibition of growth at 10 µM: 38.6%
MDA-MB-231
  inhibition of growth at 10 µM: 31.1%
SW-620
  inhibition of growth at 10 µM: 44.2%
786-0
  growth at 10 µM: 78.1%
SNB-19
  growth at 100 µM: -91%
HCT-15 [12]
  growth at 10 µM: 35.2%
TK-10
  growth at 10 µM: 88.3%
UACC-257 [13]; read-out: GI50
  GI50: 2.62 µM
UACC-257 [13]; [23]
  CC50: 35.1 µM
UACC-257 [13]; read-out: TGI
  TGI: 9.01 µM
UACC-257 [13]; read-out: pGI50 (converted)
  GI50: 2.63 µM
UACC-257 [13]; [24]
  CC50: 35.5 µM
UACC-257 [13]; read-out: pTGI (converted)
  TGI: 8.91 µM
HT-29
  inhibition of growth at 10 µM: 48.3%
MCF7
  growth at 0.01 µM: 95%
SR [14]
  inhibition of growth at 10 µM: 37.4%
MOLT-4 [15]
  growth at 10 µM: 44.4%
IGROV-1 [16]
  growth at 0.1 µM: 112%
UACC-62
  growth at 10 µM: 50.4%
SN12C
  growth at 0.1 µM: 98%
HCT-15 [17]
  growth at 0.1 µM: 96%
NCI-H522
  growth at 10 µM: 47.7%
IGROV-1 [18]
  growth at 10 µM: 60.8%
UACC-257 [19]
  growth at 0.1 µM: 92%
SK-MEL-28
  inhibition of growth at 10 µM: 25.8%
[20]
  growth at 100 µM: -93%
KM12 [21]
  growth at 0.1 µM: 99%
KM12 [22]
  growth at 0.01 µM: 101%

— ChEMBL document CHEMBL2413072, “Synthesis and in vitro anticancer studies of novel C-2 arylidene congeners of lantadenes” (2013)
